ChEMBL document CHEMBL2062379, “Cleavage mechanism and anti-tumor activity of 3,6-epidioxy-1,10-bisaboladiene isolated from edible wild plants” (Bioorg Med Chem, 2012)
pIC50: −log10 of the molar value. The source made the active and inactive calls. The calls are words filed in the database; no cut-off is given here.

Experiments:
MKN-28 = test: Growth inhibition of human MKN28 cells; format: functional
A549 = test: Growth inhibition of human A549 cells; format: functional
[1] = target: MAP kinase p38 (Homo sapiens) (UniProt O15264+Q15759+Q16539+P53778); test: Induction of p38 MAPK phosphorylation at T180/Y182 in human HL60 cells at 5 uM after 6 hrs by Western blot analysis; format: cell-based; conditions: HL-60
OVCAR-3 = test: Growth inhibition of human OVCAR3 cells; format: functional
HL-60 [2] = test: Cytotoxicity against human HL60 cells assessed as cell viability at 2 uM by MTT assay; format: functional; conditions: read-out: Activity
NCI-H226 = test: Growth inhibition of human NCI-H226 cells; format: functional
ACHN = test: Growth inhibition of human ACHN cells; format: functional
MDA-MB-231 = test: Growth inhibition of human MDA-MB-231 cells; format: functional
SF-268 = test: Growth inhibition of human SF268 cells; format: functional
HL-60 [3] = test: Induction of apoptosis in human HL60 cells assessed as DNA fragmentation after 24 hrs by Hoechst staining-based microscopic analysis in presence of 100 uM free radical scavenger vitamin E; format: functional, cell-based
HL-60 [4] = test: Induction of apoptosis in human HL60 cells assessed as caspase 8 activation after 1 to 6 hrs by spectrophotometric analysis; format: functional, cell-based
SK-OV-3 = test: Growth inhibition of human SKOV3 cells; format: functional
HL-60 [5] = test: Ratio of IC50 for human HL60 cells in presence of DFOM to IC50 for human HL60 cells in absence of DFOM; format: functional
SNB-75 = test: Growth inhibition of human SNB75 cells; format: functional
HL-60 [6] = test: Induction of apoptosis in human HL60 cells assessed as DNA fragmentation after 24 hrs by Hoechst staining-based microscopic analysis in presence of 10 mM hydrogen peroxide scavenger NAC; format: functional, cell-based
Saccharomyces cerevisiae [7] = test: Growth restoration activity in cdc2-1 rad9-deficient Saccharomyces cerevisiae assessed as growth zone at 1 ug/disc incubated at 37 degC for 6 hrs and 28 degC for 2 days; format: functional
HL-60 [8] = test: Induction of apoptosis in human HL60 cells assessed as condensed and fragmented nuclie at 10.6 uM after 18 hrs by Hoechst staining-based microscopic analysis relative to control; format: functional, cell-based
[9] = Growth inhibition of human RXF631L cells; format: functional; conditions: RXF 631
MKN-45 = test: Growth inhibition of human MKN45 cells; format: functional
HL-60 [10] = test: Cytotoxicity against human HL60 cells assessed as cell viability at 2 uM by MTT assay in presence of 20 uM FeSO4; format: functional
MCF7 = test: Growth inhibition of human MCF7 cells; format: functional
DMS-273 = test: Growth inhibition of human DMS273 cells; format: functional
LNCaP = test: Cytotoxicity against human LNCAP cells after 4 days by MTT assay; format: functional, cell-based; conditions: 96 h
NCI-H23 = test: Growth inhibition of human NCI-H23 cells; format: functional
U-251 = test: Growth inhibition of human U251 cells; format: functional
MKN-7 = test: Growth inhibition of human MKN7 cells; format: functional
Saccharomyces cerevisiae [11] = test: Growth restoration activity in cdc2-1 rad9-deficient Saccharomyces cerevisiae assessed as growth zone at 2 ug/disc incubated at 37 degC for 6 hrs and 28 degC for 2 days; format: functional
PC-3 = test: Growth inhibition of human PC3 cells; format: functional
[12] = Growth inhibition of human BSY1 cells; format: functional; conditions: BSY-1
HL-60 [13] = test: Induction of apoptosis in human HL60 cells assessed as DNA fragmentation after 24 hrs by Hoechst staining-based microscopic analysis preincubated with 10 uM ERK inhibitor PD98059; format: functional, cell-based
SF-539 = test: Growth inhibition of human SF539 cells; format: functional
HL-60 [14] = test: Induction of apoptosis in human HL60 cells assessed as DNA fragmentation after 24 hrs by Hoechst staining-based microscopic analysis in presence of 50 uM superoxide scavenger allopurinol; format: functional, cell-based
HL-60 [15] = test: Cytotoxicity against human HL60 cells after 48 hrs by MTT assay; format: functional, cell-based; conditions: HL-60, 48 h
HL-60 [16] = test: Induction of apoptosis in human HL60 cells assessed as DNA fragmentation at 1.25 to 40 uM by Hoechst staining-based microscopic analysis; format: functional, cell-based; conditions: TDE = time-dependent effect
St-4 = test: Growth inhibition of human St-4 cells; format: functional
LOX IMVI = test: Growth inhibition of human LOXIMVI cells; format: functional
[17] = Growth inhibition of human HBC4 cells; format: functional
HL-60 [18] = test: Cytotoxicity against human HL60 cells assessed as cell viability at 2 uM by MTT assay in presence of 20 uM Fe2(SO4)3; format: functional
SF-295 = test: Growth inhibition of human SF295 cells; format: functional
[19] = Growth inhibition of human HBC5 cells; format: functional
HL-60 [20] = test: Induction of apoptosis in human HL60 cells assessed as caspase 3/7 activation at 20 uM after 3 hrs by spectrophotometric analysis; format: functional, cell-based
Mus musculus = test: Toxicity in nude mouse bearing human LOXIMVI cells assessed as change in body weight at 25 mg/kg, iv administered on day 1, 6 and 11; format: organism-based, LOX IMVI; design: dose 25 mg/kg, route intravenous; conditions: in vivo
HL-60 [21] = test: Induction of apoptosis in human HL60 cells assessed as DNA fragmentation after 24 hrs by Hoechst staining-based microscopic analysis preincubated with 5 uM JNK inhibitor SP600125; format: functional, cell-based
HL-60 [22] = test: Induction of ROS generation in human HL60 cells at 10 uM measured immediately by spectrofluorometric analysis; format: functional, cell-based
HL-60 [23] = test: Induction of apoptosis in human HL60 cells assessed as caspase 8 activation at 20 uM after 3 hrs by spectrophotometric analysis; format: functional, cell-based
[24] = Induction of ROS generation at 10 uM after 3 hrs by spectrofluorometric analysis in presence of FeSO4; format: physicochemical
HCC 2998 = test: Growth inhibition of human HCC2998 cells; format: functional
HL-60 [25] = test: Induction of apoptosis in human HL60 cells assessed as caspase 9 activation at 20 uM after 3 hrs by spectrophotometric analysis; format: functional, cell-based
[26] = Growth inhibition of human MKN1 cells; format: functional; conditions: MKN-1
HL-60 [27] = test: Induction of apoptosis in human HL60 cells assessed as DNA fragmentation after 24 hrs by Hoechst staining-based microscopic analysis preincubated with 20 uM p38 MAPK inhibitor SB203580; format: functional, cell-based
NCI-H460 = test: Growth inhibition of human NCI-H460 cells; format: functional
HL-60 [28] = test: Cytotoxicity against human HL60 cells after 48 hrs by MTT assay in presence of DFOM; format: functional, cell-based; conditions: HL-60, 48 h
Saccharomyces cerevisiae [29] = test: Growth restoration activity in cdc2-1 rad9-deficient Saccharomyces cerevisiae assessed as growth zone incubated at 37 degC for 6 hrs and 28 degC for 2 days; format: functional, organism-based
DU-145 = test: Growth inhibition of human DU145 cells; format: functional
Saccharomyces cerevisiae [30] = test: Growth restoration activity in cdc2-1 rad9-deficient Saccharomyces cerevisiae assessed as growth zone at 4 ug/disc incubated at 37 degC for 6 hrs and 28 degC for 2 days; format: functional
OVCAR-4 = test: Growth inhibition of human OVCAR4 cells; format: functional

Structure (SMILES): CC(C)=CCCC(C)C12C=CC(C)(CC1)OO2 (stereo unspecified)
- GI50 (MKN-28): 8.32 µM
- GI50 (A549): 1550 nM
- Activity [1]: Active
- GI50 (OVCAR-3): 1740 nM
- viability at 2 µM (HL-60 [2]): 77.8%
- GI50 (NCI-H226): 3.89 µM
- GI50 (ACHN): 1230 nM
- GI50 (MDA-MB-231): 11.7 µM
- GI50 (SF-268): 7.08 µM
- Activity (HL-60 [3]): inactive
- Activity (HL-60 [4]): Dose-dependent effect
- GI50 (SK-OV-3): 7.94 µM
- Ratio IC50 (HL-60 [5]): 10
- GI50 (SNB-75): 1320 nM
- Activity (HL-60 [6]): Active
- Activity (Saccharomyces cerevisiae [7]): 19 mm
- Activity (HL-60 [8]): Active
- GI50 [9]: 2510 nM
- GI50 (MKN-45): 6.31 µM
- Activity (HL-60 [10]): 33.2%
- GI50 (MCF7): 2090 nM
- GI50 (DMS-273): 1150 nM
- pIC50 (LNCaP): 4.63
- GI50 (NCI-H23): 1700 nM
- GI50 (U-251): 5.01 µM
- GI50 (MKN-7): 3.63 µM
- Activity (Saccharomyces cerevisiae [11]): 24.1 mm
- GI50 (PC-3): 1820 nM
- GI50 [12]: 2950 nM
- Activity (HL-60 [13]): Active
- GI50 (SF-539): 2570 nM
- Activity (HL-60 [14]): Active
- pIC50 (HL-60 [15]): 5.47
- Activity (HL-60 [16]): tde
- GI50 (St-4): 5.37 µM
- GI50 (LOX IMVI): 214 nM
- GI50 [17]: 1120 nM
- Activity (HL-60 [18]): 34.9%
- GI50 (SF-295): 1660 nM
- GI50 [19]: 191 nM
- Activity (HL-60 [20]): Active
- Activity (Mus musculus): Non-toxic
- Activity (HL-60 [21]): Active
- Activity (HL-60 [22]): Active
- Activity (HL-60 [23]): Active
- Activity [24]: Active
- GI50 (HCC 2998): 4.68 µM
- Activity (HL-60 [25]): Active
- GI50 [26]: 1740 nM
- Activity (HL-60 [27]): inactive
- GI50 (NCI-H460): 832 nM
- pIC50 (HL-60 [28]): 4.45
- Activity (Saccharomyces cerevisiae [29]): Dose-dependent effect
- GI50 (DU-145): 2630 nM
- Activity (Saccharomyces cerevisiae [30]): 29 mm
- GI50 (OVCAR-4): 1820 nM
